What all share (format): cell-based
For experiment [1], the target named is T1, GLP-1 receptor (Homo sapiens, UniProt P43220). The experiment can be described thus: HitHunter cAMP assay, GLP-1 receptor. Particulars: for Emax: read-out: Emax GLP-1R. (Changes in cAMP serve as a functional read-out for many G protein-coupled receptors.)
The target in experiment [2] is T2, GIP receptor (Homo sapiens, UniProt P48546).
T2 sequence (P48546 22-466): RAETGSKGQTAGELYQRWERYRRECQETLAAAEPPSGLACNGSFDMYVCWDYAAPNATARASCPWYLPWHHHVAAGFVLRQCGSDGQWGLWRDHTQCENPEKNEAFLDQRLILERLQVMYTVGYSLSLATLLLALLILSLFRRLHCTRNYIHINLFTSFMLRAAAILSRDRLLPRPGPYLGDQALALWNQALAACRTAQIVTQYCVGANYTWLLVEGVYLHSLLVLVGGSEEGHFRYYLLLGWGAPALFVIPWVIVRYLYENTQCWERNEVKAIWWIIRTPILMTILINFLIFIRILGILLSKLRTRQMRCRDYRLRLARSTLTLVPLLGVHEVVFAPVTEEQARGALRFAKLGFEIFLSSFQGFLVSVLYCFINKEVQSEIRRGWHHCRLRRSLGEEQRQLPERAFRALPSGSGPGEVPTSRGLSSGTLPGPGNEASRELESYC
The experiment can be described thus: HitHunter cAMP assay, GIP receptor. The following applies: for Emax: read-out: Emax GIP-1R.

The target of experiment [3] is T2, GIP receptor. As to the kind of experiment: PathHunter β-arrestin assay, GIP receptor. Set-up: host or cells: PathHunter CHO-K1 GIPR β-Arrestin Cell Line.
Experiment [4] addresses T1, GLP-1 receptor. As to the kind of experiment: PathHunter β-arrestin assay, GLP-1 receptor. Also noted: host or cells: PathHunter CHO-K1 GLP1R β-Arrestin Cell Line.
[5] abbreviates: CHO cells stably expressing human GLP-1 receptor, cAMP accumulation, 30 min, read-out: EC50 GLP-1R.
[6] abbreviates: CHO cells, cAMP, normalized to maximum signal from GLP-1 (high) and DMSO (low).
Setting [7] is: CHO cells stably expressing GIP receptor, cAMP accumulation, 30 min, read-out: EC50 GIP-1R.
The mark [8] stands for this setting: CHO cells, cAMP, normalized to maximum signal from GIP (high) and DMSO (low).
[9] abbreviates: β-arrestin-2 recruitment, PathHunter CHO-K1 GIPR β-Arrestin Cell Line, 90 min at 37° C., normalized to GIP, read-out: GIPR β Arrestin EC50.
Where [10] appears, read: β-arrestin-2 recruitment, PathHunter CHO-K1 GLP1R β-Arrestin Cell Line, 90 min at 37° C., normalized to GLP-1, read-out: GLP-1R β Arrestin EC50.

Like-named read-outs stand apart in the source and are kept apart here. *1 amine or outer side, *2 acyl side, *3 side chain or, on linkers, in order; H or OH if unused. Where a SMILES comes first, the peptide text is derived from it. Side-chain parts run from the residue outwards. [ ]: non-standard residue; d: D form. The star is where a group is joined. Isobutyryl(2-(3-CN-5-F-Ph)) = CC(C)(C(=O)*)c1cc(F)cc(C#N)c1; cPentCO(1-(4-ClPh)) = O=C(C1(c2ccc(Cl)cc2)CCCC1)*; C20 diacid = O=C(O)CCCCCCCCCCCCCCCCCCC(=O)*; C18 diacid = O=C(O)CCCCCCCCCCCCCCCCC(=O)*; γGlu = O=C(O)[C@H](CCC(=O)[*:2])N[*:1]; X68 = CC(C)[C@@H](CN[*:1])C(=O)[*:2]; NH(3-Cl-phenyl) = Clc1cccc(N*)c1; AEEA = NCCOCCOCC(=O)O; Aib = CC(C)(N)C(=O)O; CO = O=C([*:1])[*:2]; GABA = NCCCC(=O)O; βAla = NCCC(=O)O

T1 sequence (P43220 24-463): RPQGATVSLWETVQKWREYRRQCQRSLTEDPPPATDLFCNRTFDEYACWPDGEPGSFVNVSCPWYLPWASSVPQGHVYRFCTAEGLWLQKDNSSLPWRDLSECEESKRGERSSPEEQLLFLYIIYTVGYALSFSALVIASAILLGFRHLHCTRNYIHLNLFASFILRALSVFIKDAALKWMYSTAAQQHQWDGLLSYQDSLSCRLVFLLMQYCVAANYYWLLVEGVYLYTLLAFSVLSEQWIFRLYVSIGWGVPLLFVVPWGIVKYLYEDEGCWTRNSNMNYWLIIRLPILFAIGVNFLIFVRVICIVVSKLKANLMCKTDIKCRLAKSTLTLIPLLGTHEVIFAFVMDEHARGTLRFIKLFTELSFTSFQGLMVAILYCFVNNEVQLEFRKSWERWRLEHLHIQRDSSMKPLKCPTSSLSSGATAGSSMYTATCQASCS

Take `CC[C@H](C)[C@H](NC(=O)[C@H](CC(C)C)NC(=O)[C@H](Cc1c[nH]c2ccccc12)NC(=O)[C@H](CCC(N)=O)NC(=O)[C@@H](NC(=O)[C@H](Cc1ccccc1)NC(=O)[C@H](C)NC(=O)[C@H](CCCCNC(=O)COCCOCCNC(=O)COCCOCCNC(=O)CC[C@H](NC(=O)CCCCCCCCCCCCCCCCCCC(=O)O)C(=O)O)NC(=O)[C@H](CCC(N)=O)NC(=O)[C@H](C)NC(=O)[C@@H](NC(=O)[C@H](CCCCN)NC(=O)[C@H](CC(=O)O)NC(=O)[C@H](CC(C)C)NC(=O)C(C)(C)NC(=O)[C@@H](NC(=O)[C@H](CO)NC(=O)[C@H](Cc1ccc(O)cc1)NC(=O)[C@H](CC(=O)O)NC(=O)[C@H](CO)NC(=O)[C@@H](NC(=O)[C@H](Cc1ccccc1)NC(=O)[C@@H](NC(=O)CNC(=O)[C@H](CCC(=O)O)NC(=O)[C@H](CNC(=O)C(C)(C)c1cc(F)cc(C#N)c1)C(C)C)[C@@H](C)O)[C@@H](C)O)[C@@H](C)CC)[C@@H](C)CC)C(C)C)C(=O)N[C@@H](C)C(=O)NCC(=O)NCC(=O)N1CCC[C@H]1C(=O)N[C@@H](CO)C(=O)N[C@@H](CO)C(=O)NCC(=O)N[C@@H](C)C(=O)N1CCC[C@H]1C(=O)N1CCC[C@H]1C(=O)N1CCC[C@H]1C(=O)N[C@@H](CO)C(N)=O` [Compound 171] ({Isobutyryl(2-(3-CN-5-F-Ph))}-[X68]EGTFTSDYSI[Aib]LDKIAQK([AEEA-AEEA-γGlu-C20 diacid])AFVQWLIAGGPSSGAPPPS-NH2): the EC50 (commonly the concentration giving half of the maximal effect) at GLP-1 receptor [1] (setting [5]) was 10 to 100 nM; at GIP receptor [2] (setting [7]) it was 100 to 1000 nM; on GIP receptor [3] (setting [9]), greater than 1000 nM; on GLP-1 receptor [4] (setting [10]), greater than 1000 nM. Also, the Emax (usually the maximal effect, on the per cent scale that the assay sets) on GLP-1 receptor [1] (setting [6]) is 109%; at GIP receptor [2] (setting [8]), 94%.

As for `CC[C@H](C)[C@H](NC(=O)[C@H](CC(C)C)NC(=O)[C@H](Cc1c[nH]c2ccccc12)NC(=O)[C@H](CCC(N)=O)NC(=O)[C@@H](NC(=O)[C@H](Cc1ccccc1)NC(=O)[C@H](C)NC(=O)[C@H](CCCCNC(=O)COCCOCCNC(=O)COCCOCCNC(=O)CC[C@H](NC(=O)CCCCCCCCCCCCCCCCCCC(=O)O)C(=O)O)NC(=O)[C@H](CCC(N)=O)NC(=O)[C@H](C)NC(=O)[C@@H](NC(=O)[C@H](CCCCN)NC(=O)[C@H](CC(=O)O)NC(=O)[C@H](CC(C)C)NC(=O)C(C)(C)NC(=O)[C@@H](NC(=O)[C@H](CO)NC(=O)[C@H](Cc1ccc(O)cc1)NC(=O)[C@H](CC(=O)O)NC(=O)[C@H](CO)NC(=O)[C@@H](NC(=O)[C@H](Cc1ccccc1)NC(=O)[C@@H](NC(=O)CNC(=O)[C@H](CCC(=O)O)NC(=O)CCCNC(=O)CNC(=O)Nc1cccc(Cl)c1)[C@@H](C)O)[C@@H](C)O)[C@@H](C)CC)[C@@H](C)CC)C(C)C)C(=O)N[C@@H](C)C(=O)NCC(=O)NCC(=O)N1CCC[C@H]1C(=O)N[C@@H](CO)C(=O)N[C@@H](CO)C(=O)NCC(=O)N[C@@H](C)C(=O)N1CCC[C@H]1C(=O)N1CCC[C@H]1C(=O)N1CCC[C@H]1C(=O)N[C@@H](CO)C(N)=O` [Compound 273] ({NH(3-Cl-phenyl)-CO}-G[GABA]EGTFTSDYSI[Aib]LDKIAQK([AEEA-AEEA-γGlu-C20 diacid])AFVQWLIAGGPSSGAPPPS-NH2), the EC50 on GLP-1 receptor [1] is 1 to 10 nM; at GIP receptor [2], 1 to 10 nM; at GIP receptor [3], greater than 1000 nM; on GLP-1 receptor [4], greater than 1000 nM. For the same compound, the Emax is 106% on GLP-1 receptor [1] (CHO) and 99% on GIP receptor [2] (CHO).

For the compound `CC[C@H](C)[C@H](NC(=O)[C@H](CC(C)C)NC(=O)[C@H](Cc1c[nH]c2ccccc12)NC(=O)[C@H](CCC(N)=O)NC(=O)[C@@H](NC(=O)[C@H](Cc1ccccc1)NC(=O)[C@H](C)NC(=O)[C@H](CCCCNC(=O)COCCOCCNC(=O)COCCOCCNC(=O)CC[C@H](NC(=O)CCCCCCCCCCCCCCCCC(=O)O)C(=O)O)NC(=O)[C@H](CCC(N)=O)NC(=O)[C@H](C)NC(=O)[C@@H](NC(=O)[C@H](CCCCN)NC(=O)[C@H](CC(=O)O)NC(=O)[C@H](CC(C)C)NC(=O)C(C)(C)NC(=O)[C@@H](NC(=O)[C@H](CO)NC(=O)[C@H](Cc1ccc(O)cc1)NC(=O)[C@H](CC(=O)O)NC(=O)[C@H](CO)NC(=O)[C@@H](NC(=O)[C@H](Cc1ccccc1)NC(=O)[C@@H](NC(=O)CNC(=O)[C@H](CCC(=O)O)NC(=O)CCNC(=O)C(C)(C)c1cc(F)cc(C#N)c1)[C@@H](C)O)[C@@H](C)O)[C@@H](C)CC)[C@@H](C)CC)C(C)C)C(=O)N[C@@H](C)C(=O)NCC(=O)NCC(=O)N1CCC[C@H]1C(=O)N[C@@H](CO)C(=O)N[C@@H](CO)C(=O)NCC(=O)N[C@@H](C)C(=O)N1CCC[C@H]1C(=O)N1CCC[C@H]1C(=O)N1CCC[C@H]1C(=O)N[C@@H](CO)C(N)=O` [Compound 106] ({Isobutyryl(2-(3-CN-5-F-Ph))-βAla}-EGTFTSDYSI[Aib]LDKIAQK([AEEA-AEEA-γGlu-C18 diacid])AFVQWLIAGGPSSGAPPPS-NH2), the EC50 at GLP-1 receptor [1] (setting [5]) is 0.1 to 1 nM; at GIP receptor [2] (setting [7]), 10 to 100 nM; on GIP receptor [3] (setting [9]) it was greater than 1000 nM; on GLP-1 receptor [4] (setting [10]) it was greater than 1000 nM. Further, the Emax was found to be 97% on GLP-1 receptor [1] (setting [6]) and 98% on GIP receptor [2] (setting [8]).

Consider `CC[C@H](C)[C@H](NC(=O)[C@H](CO)NC(=O)[C@H](Cc1ccc(O)cc1)NC(=O)[C@H](CC(=O)O)NC(=O)[C@H](CO)NC(=O)[C@@H](NC(=O)[C@H](Cc1ccccc1)NC(=O)[C@@H](NC(=O)CNC(=O)[C@H](CCC(=O)O)NC(=O)CCNC(=O)C(C)(C)c1cc(F)cc(C#N)c1)[C@@H](C)O)[C@@H](C)O)C(=O)N[C@@H](Cc1ccc(O)cc1)C(=O)N[C@@H](CC(C)C)C(=O)N[C@@H](CC(=O)O)C(=O)N[C@@H](CCCCN)C(=O)N[C@@H](CCC(N)=O)C(=O)N[C@@H](C)C(=O)N[C@@H](C)C(=O)N[C@@H](CCCCNC(=O)COCCOCCNC(=O)COCCOCCNC(=O)CC[C@H](NC(=O)CCCCCCCCCCCCCCCCCCC(=O)O)C(=O)O)C(=O)N[C@@H](CCC(=O)O)C(=O)N[C@@H](Cc1ccccc1)C(=O)N[C@H](C(=O)N[C@@H](CC(N)=O)C(=O)N[C@@H](Cc1c[nH]c2ccccc12)C(=O)N[C@@H](CC(C)C)C(=O)N[C@@H](CC(C)C)C(=O)N[C@@H](C)C(=O)NCC(=O)NCC(=O)N1CCC[C@H]1C(=O)N[C@@H](CO)C(=O)N[C@@H](CO)C(=O)NCC(=O)N[C@@H](C)C(=O)N1CCC[C@H]1C(=O)N1CCC[C@H]1C(=O)N1CCC[C@H]1C(=O)N[C@@H](CO)C(N)=O)C(C)C` [Compound 184], for which the EC50 at GLP-1 receptor [1] (setting [5]) was 1 to 10 nM; on GIP receptor [2] (setting [7]) it was 100 to 1000 nM; on GIP receptor [3] (setting [9]), greater than 1000 nM; on GLP-1 receptor [4] (setting [10]) it was greater than 1000 nM. In addition, the Emax at GLP-1 receptor [1] (setting [6]) was 99%; on GIP receptor [2] (setting [8]), 90%.

Turning to `CC[C@H](C)[C@H](NC(=O)[C@H](CC(C)C)NC(=O)[C@H](Cc1c[nH]c2ccccc12)NC(=O)[C@H](CCC(N)=O)NC(=O)[C@@H](NC(=O)[C@H](Cc1ccccc1)NC(=O)[C@H](C)NC(=O)[C@H](CCCCNC(=O)COCCOCCNC(=O)COCCOCCNC(=O)CC[C@H](NC(=O)CCCCCCCCCCCCCCCCCCC(=O)O)C(=O)O)NC(=O)[C@H](CCC(N)=O)NC(=O)[C@H](C)NC(=O)[C@@H](NC(=O)[C@H](CCCCN)NC(=O)[C@H](CC(=O)O)NC(=O)[C@H](CC(C)C)NC(=O)C(C)(C)NC(=O)[C@@H](NC(=O)[C@H](CO)NC(=O)[C@H](Cc1ccc(O)cc1)NC(=O)[C@H](CC(=O)O)NC(=O)[C@H](CO)NC(=O)[C@@H](NC(=O)[C@H](Cc1ccccc1)NC(=O)[C@@H](NC(=O)CNC(=O)[C@H](CCC(=O)O)NC(=O)CCNC(=O)C1(c2ccc(Cl)cc2)CCCC1)[C@@H](C)O)[C@@H](C)O)[C@@H](C)CC)[C@@H](C)CC)C(C)C)C(=O)N[C@@H](C)C(=O)NCC(=O)NCC(=O)N1CCC[C@H]1C(=O)N[C@@H](CO)C(=O)N[C@@H](CO)C(=O)NCC(=O)N[C@@H](C)C(=O)N1CCC[C@H]1C(=O)N1CCC[C@H]1C(=O)N1CCC[C@H]1C(=O)N[C@@H](CO)C(N)=O` [Compound 217] ({cPentCO(1-(4-ClPh))-βAla}-EGTFTSDYSI[Aib]LDKIAQK([AEEA-AEEA-γGlu-C20 diacid])AFVQWLIAGGPSSGAPPPS-NH2), the EC50 at GLP-1 receptor [1] (setting [5]) is 0.1 to 1 nM; at GIP receptor [2] (setting [7]) it was 0.1 to 1 nM; at GIP receptor [3] (setting [9]), greater than 1000 nM; at GLP-1 receptor [4] (setting [10]), greater than 1000 nM. For the same compound, the values for the Emax at GLP-1 receptor [1] (setting [6]) and at GIP receptor [2] (setting [8]) were 101% and 108%, respectively.

For the origin of these results see US12281149B2, “Modulators of G-protein coupled receptors” (priority 2021, dated 2025).
